Data reported in patent US20180338980A1, “AROMATIC SULFONAMIDE DERIVATIVES” (BAYER PHARMA AKTIENGESELLSCHAFT, priority 2015, published 2018).

Target: T1, P2X4 (Homo sapiens, UniProt Q99571)
T1 sequence (Q99571 1-388): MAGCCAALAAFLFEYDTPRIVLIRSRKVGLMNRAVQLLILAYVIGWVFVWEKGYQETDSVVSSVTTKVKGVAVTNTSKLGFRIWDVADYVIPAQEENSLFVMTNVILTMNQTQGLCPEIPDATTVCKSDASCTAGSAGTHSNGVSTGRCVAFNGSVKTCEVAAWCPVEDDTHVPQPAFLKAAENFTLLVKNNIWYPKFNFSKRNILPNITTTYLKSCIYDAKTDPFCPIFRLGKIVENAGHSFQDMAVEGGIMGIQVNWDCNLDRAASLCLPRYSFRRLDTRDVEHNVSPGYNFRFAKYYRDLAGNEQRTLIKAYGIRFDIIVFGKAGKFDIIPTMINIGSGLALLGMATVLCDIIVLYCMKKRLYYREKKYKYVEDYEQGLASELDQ
Experiment: Assay B: human P2X4 receptor cell line, mitochondrial photina luminescence (agonist Bz-ATP at EC50)
Assay type: cell-based
Set-up: host or cells: HEK 293 (recombinant, constitutively expressing; with mitochondrial photina in Assay B)
Settings: HEK human P2X4 cell line, photina luminescence, agonist Bz-ATP at EC50, average; for Emax: read-out: human P2X4 Assay B avg Efficacy
Procedure: The identification of agonists and antagonists of the P2X4 receptor from humans and […] also the quantification of the activity of the compounds of the invention was performed by use of recombinant cell lines. […] The test cell lines constitutively express the mouse or human P2X4 receptors. Stimulation of the receptors with an agonist leads to a conformational change of P2X4 and influx of extracellular calcium ions through the ion channel. The cytoplasmatic calcium transient is detected via the calcium sensitive dye Fluo8 for the mouse P2×4 cell line or in case of the human P2×4 cell line a stably expressed calcium-sensitive photoprotein, mitochondrial photina, which, after reconstitution with the cofactor coelenterazine, emits light in dependence of calcium binding [Bovolenta S, Foti M, Lohmer S, Corazza S., J Biomol Screen. […] The strength of Fluo8 fluorescence signal or photina luminescence signal corresponds to the level of receptor activation. An inhibitor would decrease the signal depending on its potency and concentration.
The resulting light signal is measured immediately in the luminometer.

SMILES | IC50 [nM] | human P2X4 Assay B avg Efficacy [%] | Emax [%]
CC(Oc1ccc(NC(=O)Cc2ccccc2Cl)cc1S(N)(=O)=O)c1ccccc1 (single isomer, unassigned) [Example 148B, 2-(2-Chlorophenyl)-N-[4-(1-phenylethoxy)-3-sulfamoylphenyl]acetamide] | 519 | 64 | –
NS(=O)(=O)c1cc(NC(=O)Cc2ccccc2Cl)ccc1Oc1cncnc1 [Example 019, 2-(2-Chlorophenyl)-N-[4-(pyrimidin-5-yloxy)-3-sulfamoylphenyl]acetamide] | 1420 | – | 80
NS(=O)(=O)c1cc(NC(=O)Cc2ccccc2Cl)ccc1Oc1cccc(-c2nnn[nH]2)c1 [Example 021, 2-(2-Chlorophenyl)-N-{3-sulfamoyl-4-[3-(1H-tetrazol-5-yl)phenoxy]phenyl}acetamide] | 3860 | – | 60
COc1ccc(Oc2ccc(NC(=O)Cc3ccccc3Cl)cc2S(N)(=O)=O)cc1 [Example 023, 2-(2-Chlorophenyl)-N-[4-(4-methoxyphenoxy)-3-sulfamoylphenyl]acetamide] | 166 | – | 73
NS(=O)(=O)c1cc(NC(=O)Cc2ccccc2Cl)ccc1Oc1cccc(N2CCN(C(=O)Cc3ccccc3Cl)CC2)c1 [Example 027, 2-(2-Chlorophenyl)-N-[4-(3-{4-[(2-chlorophenyl)acetyl]piperazin-1-yl}phenoxy)-3-sulfamoylphenyl]acetamide] | 776 | – | 99
NS(=O)(=O)c1cc(NC(=O)Cc2ccccc2Cl)ccc1Oc1ncccc1Cl [Example 038, 2-(2-chlorophenyl)-N-{4-[(3-chloropyridin-2-yl)oxy]-3-sulfamoylphenyl}acetamide] | 777 | – | 74
NS(=O)(=O)c1cc(NC(=O)Cc2ccccc2Cl)ccc1Oc1cccc(Cl)n1 [Example 040, 2-(2-Chlorophenyl)-N-{4-[(6-chloropyridin-2-yl)oxy]-3-sulfamoylphenyl}acetamide] | 238 | – | 64
CN1CCN=C1c1cccc(Oc2ccc(NC(=O)Cc3ccccc3Cl)cc2S(N)(=O)=O)c1 [Example 041, 2-(2-Chlorophenyl)-N-{4-[3-(1-methyl-4,5-dihydro-1H-imidazol-2-yl)phenoxy]-3-sulfamoylphenyl}acetamide] | 3380 | – | 72
NS(=O)(=O)c1cc(NC(=O)Cc2ccccc2Cl)ccc1Oc1ccc(N2CCOCC2)cc1 [Example 044, 2-(2-Chlorophenyl)-N-{4-[4-(morpholin-4-yl)phenoxy]-3-sulfamoylphenyl}acetamide] | 2630 | – | 69
NS(=O)(=O)c1cc(NC(=O)Cc2ccccc2Cl)ccc1Oc1cccc(N2CCCCC2)c1 [Example 049, 2-(2-Chlorophenyl)-N-{4-[3-(piperidin-1-yl)phenoxy]-3-sulfamoylphenyl}acetamide] | 773 | – | 92
N#CC1(COc2ccc(NC(=O)Cc3ccccc3Cl)cc2S(N)(=O)=O)CCOCC1 [Example 055, 2-(2-Chlorophenyl)-N-{4-[(4-cyanotetrahydro-2H-pyran-4-yl)methoxy]-3-sulfamoylphenyl}acetamide] | 1160 | – | 71
NS(=O)(=O)c1cc(NC(=O)Cc2ccccc2Cl)ccc1Oc1cnc(C(F)(F)F)nc1 [Example 056, 2-(2-Chlorophenyl)-N-(3-sulfamoyl-4-{[2-(trifluoromethyl)pyrimidin-5-yl]oxy}phenyl)acetamide] | > 50000 | – | 15
CC(C)c1ncc(Oc2ccc(NC(=O)Cc3ccccc3Cl)cc2S(N)(=O)=O)cn1 [Example 057, 2-(2-Chlorophenyl)-N-{4-[(2-isopropylpyrimidin-5-yl)oxy]-3-sulfamoylphenyl}acetamide] | 1590 | – | 65
Cc1nc(C2CC2)ncc1Oc1ccc(NC(=O)Cc2ccccc2Cl)cc1S(N)(=O)=O [Example 058, 2-(2-Chlorophenyl)-N-{4-[(2-cyclopropyl-4-methylpyrimidin-5-yl)oxy]-3-sulfamoylphenyl}acetamide] | 3180 | – | 73
NS(=O)(=O)c1cc(NC(=O)Cc2ccccc2Cl)ccc1Oc1cccc(C(=O)N2CCCCC2)c1 [Example 067, 2-(2-chlorophenyl)-N-{4-[3-(piperidin-1-ylcarbonyl)phenoxy]-3-sulfamoylphenyl}acetamide] | 241 | – | 72
COc1ccccc1Oc1ccc(NC(=O)Cc2ccccc2)cc1S(N)(=O)=O [Example 070, N-[4-(2-Methoxyphenoxy)-3-sulfamoylphenyl]-2-phenylacetamide] | 1100 | – | 70
COc1ccccc1Oc1ccc(NC(=O)Cc2ccc(C(F)(F)F)cc2)cc1S(N)(=O)=O [Example 071, N-[4-(2-Methoxyphenoxy)-3-sulfamoylphenyl]-2-[4-(trifluoromethyl)phenyl]acetamide] | 2090 | – | 73
NS(=O)(=O)c1cc(NC(=O)Cc2ccc(C(F)(F)F)cc2)ccc1Oc1ccccc1OC(F)(F)F [Example 072, N-{3-Sulfamoyl-4-[2-(trifluoromethoxy)phenoxy]phenyl}-2-[4-(trifluoromethyl)phenyl]acetamide] | 2960 | – | 63
NS(=O)(=O)c1cc(NC(=O)Cc2ccc(C(F)(F)F)cc2)ccc1Oc1ccccc1Cl [Example 073, N-[4-(2-Chlorophenoxy)-3-sulfamoylphenyl]-2-[4-(trifluoromethyl)phenyl]acetamide] | 3370 | – | 65
NS(=O)(=O)c1cc(NC(=O)Cc2ccccc2)ccc1Oc1ccccc1OC(F)(F)F [Example 074, 2-Phenyl-N-{3-sulfamoyl-4-[2-(trifluoromethoxy)phenoxy]phenyl}acetamide] | 609 | – | 52

Further lines, results first:

IC50 [nM] | human P2X4 Assay B avg Efficacy [%] | Emax [%] | SMILES
7720 | – | 61 | N#Cc1cc(Cl)cc(Oc2ccc(NC(=O)Cc3ccccc3Cl)cc2S(N)(=O)=O)c1 [Example 001, N-[4-(3-Chloro-5-cyanophenoxy)-3-sulfamoylphenyl]-2-(2-chlorophenyl)acetamide]
6340 | – | 50 | NS(=O)(=O)c1cc(NC(=O)Cc2ccccc2Cl)ccc1Oc1ccnc(Cl)c1 [Example 003, 2-(2-Chlorophenyl)-N-{4-[(2-chloropyridin-4-yl)oxy]-3-sulfamoylphenyl}acetamide]
> 16000 | – | 50 | N#Cc1ccc(Oc2ccc(NC(=O)Cc3ccccc3Cl)cc2S(N)(=O)=O)cc1C#N [Example 025, 2-(2-Chlorophenyl)-N-[4-(3,4-dicyanophenoxy)-3-sulfamoylphenyl]acetamide]
5080 | – | 99 | N#Cc1ccc(Oc2ccc(NC(=O)Cc3ccccc3Cl)cc2S(N)(=O)=O)cc1 [Example 030, 2-(2-Chlorophenyl)-N-[(4-cyanophenoxy)-3-sulfamoylphenyl]acetamide]
6750 | – | 75 | N#Cc1cc(C#N)cc(Oc2ccc(NC(=O)Cc3ccccc3Cl)cc2S(N)(=O)=O)c1 [Example 033, 2-(2-Chlorophenyl)-N-[4-(3,5-dicyanophenoxy)-3-sulfamoylphenyl]acetamide]
172 | – | 57 | COc1ccc(C#N)cc1Oc1ccc(NC(=O)Cc2ccccc2Cl)cc1S(N)(=O)=O [Example 034, 2-(2-Chlorophenyl)-N-[4-(5-cyano-2-methoxyphenoxy)-3-sulfamoylphenyl]acetamide]
3570 | – | 60 | NS(=O)(=O)c1cc(NC(=O)Cc2ccccc2Cl)ccc1Oc1cc(Cl)cnc1Cl [Example 035, 2-(2-Chlorophenyl)-N-{4-[(2,5-dichloropyridin-3-yl)oxy]-3-sulfamoylphenyl}acetamide]
176 | – | 71 | Cc1ccc(C#N)cc1Oc1ccc(NC(=O)Cc2ccccc2Cl)cc1S(N)(=O)=O [Example 045, 2-(2-Chlorophenyl)-N-[4-(5-cyano-2-methylphenoxy)-3-sulfamoylphenyl]acetamide]
841 | – | 75 | Cc1c(C#N)cccc1Oc1ccc(NC(=O)Cc2ccccc2Cl)cc1S(N)(=O)=O [Example 046, 2-(2-Chlorophenyl)-N-[4-(3-cyano-2-methylphenoxy)-3-sulfamoylphenyl]acetamide]
11600 | – | 73 | N#Cc1ncc(Cl)cc1Oc1ccc(NC(=O)Cc2ccccc2Cl)cc1S(N)(=O)=O [Example 048, N-{4-[(5-Chloro-2-cyanopyridin-3-yl)oxy]-3-sulfamoylphenyl}-2-(2-chlorophenyl)acetamide]
– | – | 34 | NS(=O)(=O)c1cc(NC(=O)Cc2ccccc2Cl)ccc1Oc1ccc(Br)cc1 [Example 060, N-[4-(4-Bromophenoxy)-3-sulfamoylphenyl]-2-(2-chlorophenyl)acetamide]
2680 | – | 71 | N#Cc1cc(F)cc(Oc2ccc(NC(=O)Cc3ccccc3Cl)cc2S(N)(=O)=O)c1 [Example 069, 2-(2-chlorophenyl)-N-[4-(3-cyano-5-fluorophenoxy)-3-sulfamoylphenyl]acetamide]
